According to PMC7998658, “Phloridzin Acts as an Inhibitor of Protein-Tyrosine Phosphatase MEG2 Relevant to Insulin Resistance” (Molecules, 2021):
One block for each molecule: values may come before it.

What was measured:
[1] = molecular target: T1, PTP-MEG2 (megakaryocyte protein tyrosine phosphatase 2, PTPN9) (Homo sapiens, UniProt P43378); assay: SPR on immobilized purified PTP-MEG2; also DiFMUP enzyme inhibition, IC50 =[…], slow-binding
T1 sequence (P43378 1-593): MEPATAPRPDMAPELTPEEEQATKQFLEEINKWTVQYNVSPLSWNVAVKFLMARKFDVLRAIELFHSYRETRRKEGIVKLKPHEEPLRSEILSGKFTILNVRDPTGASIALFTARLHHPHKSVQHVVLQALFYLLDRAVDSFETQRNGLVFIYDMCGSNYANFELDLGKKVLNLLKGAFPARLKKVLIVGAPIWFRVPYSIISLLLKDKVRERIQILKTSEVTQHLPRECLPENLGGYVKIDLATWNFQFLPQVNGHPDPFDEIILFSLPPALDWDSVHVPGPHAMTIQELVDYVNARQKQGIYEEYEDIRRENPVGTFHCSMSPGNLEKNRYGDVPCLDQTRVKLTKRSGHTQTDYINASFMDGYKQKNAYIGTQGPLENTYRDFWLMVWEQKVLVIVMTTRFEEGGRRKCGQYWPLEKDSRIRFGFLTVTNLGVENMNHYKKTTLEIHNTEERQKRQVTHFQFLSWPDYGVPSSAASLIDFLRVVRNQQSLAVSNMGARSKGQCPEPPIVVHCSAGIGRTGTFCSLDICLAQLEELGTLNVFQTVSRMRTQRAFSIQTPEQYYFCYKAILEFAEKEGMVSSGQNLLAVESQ

[2] = substrate: Cc1cc(=O)oc2c(F)c(OP(=O)(O)O)c(F)cc12; assay: fluorogenic substrate hydrolysis by purified enzyme; Km from Lineweaver-Burk plots; format: biochemical, Homo sapiens
Method: fluorogenic substrate hydrolysis by purified enzyme; Km from Lineweaver-Burk plots on PTP-MEG2 (megakaryocyte protein tyrosine phosphatase 2, PTPN9) | kinetic constants of PTP-MEG2 were determined using DiFMUP as a fluorogenic PTP substrate

Kd [1]: 4.66 µM
Molecule: O=C(CCc1ccc(O)cc1)c1c(O)cc(O)cc1O[C@@H]1O[C@H](CO)[C@@H](O)[C@H](O)[C@H]1O [phloridzin]

B1: PTP-MEG2 (megakaryocyte protein tyrosine phosphatase 2, PTPN9) (Homo sapiens) (protein)
chain: T1 sequence (P43378 1-593)
Km [2]: 163.1 µM
